Patent publication US9801373B2, “Compounds for alleviating phosphate starvation symptoms in plants” (Commissariat a l'Energie Atomique et aux Energies …, priority 2012, dated 2017)
Values joined by “and” are separate entries in the source; they are usually repeats but may differ in a detail not shown here. Identical values can stand only once.

Key:
[1] = Optical density curves of PTN1 with FeCl2; type: physicochemical; details: PTN1 40 μM + FeCl2 10 μM, FIG. 9 (A)
lpr1 mutant = assay: Shoot growth of lpr1 mutant; type: in vivo, Arabidopsis thaliana; details: −Pi, FIG. 11
Protocol: In the Pi deficient medium, NaCl (0.5 mM) was used to replace the equivalent amount of sodium provided by NaH2PO4. For controls of the effects of the compounds, 1% of DMSO (Dimethyl sulfoxid, SIGMA, 472301), solvent for the tested compounds, was added. After 2 days at 4° C., the plates were placed in a vertical position and plants were grown in a culture chamber under a 16 h light/8 h dark regime (24/21° C., 150 μE m^−2s^−1). For 4 weeks culture, large plates (24×24 cm) were placed in a horizontal position. Root architecture and aerial part area were quantified using program ImageJ.

[2] = test system: PHT1;4, PHT1;8, MGD3, PLDz2, SQD2, SPX1; assay: qPCR of Pi starvation regulated genes in lpr1 mutant; type: in vivo, Arabidopsis thaliana; details: 14 days-old plants, FIG. 12
Protocol: (§1) Plant RNA was extracted with the RNeasy kit (QIAGEN, France). For transcriptome data, RNA were analysed by the CATMA technology (Complete Arabidopsis Transcriptome Microarray). For qPCR, poly(dT) cDNA were prepared from 500 ng total RNA with Superscript III reverse transcriptase (Invitrogen, France) and analysed on a LightCycler 480 apparatus (Roche Diagnostics, France) with the SYBR Green I Master kit (Roche Diagnostics, France) according to the manufacturer's instructions. Targets were quantified with specific primer pairs designed with Primer3 website (http://frodo.wi.mit.edu/primer3/) (see Table II below). Biological triplicates were performed for all experiments. Expression levels were normalized using At2g16600, At3g04120, At1g35160 and At1g32050 genes.

[3] = test system: SQD2, MGD3, PLDz2, SQD1 and MGD2; assay: qPCR of genes involved in lipid synthesis; type: in vivo, Arabidopsis thaliana; details: 40 μM, 14 days, FIG. 5 (A)
Protocol: as §1

[4] = test system: genes regulated by Pi starvation; assay: Global transcriptomic analysis (CATMA) of roots; type: in vivo, Arabidopsis thaliana
Protocol: as §1
To investigate on a wider scale the putative Phosphatin1 effect, a transcriptional analysis of the global genome was performed using the CATMA technology (http://www.catma.org/, URGV, France). It was compared transcript expression in roots of 14-days-old plantlets, grown in −Pi, −Pi+PTN1 or +Pi.
Table III: Comparison of PTN1 treatment and phosphate supply on global transcriptomic analysis. For this analysis, 14-days-old WT root samples of plants grown on −Pi, −Pi+PTN1 (40 μM) and +Pi were used. Data are expressed as ratio values between +Pi and −Pi or −Pi+PTN1 and −Pi respectively.

PHT1;4 expression = assay: Chemical genetics screen, GUS staining of pht1;4-1 reporter line; type: in vivo, Arabidopsis thaliana; details: 25 μM, 5 days on −Pi
Excerpt: A “chemical genetics” approach has been carried out to isolate compounds that inhibit the phosphate (Pi) response in Arabidopsis thaliana. Compounds were screened for their ability to inhibit the expression of a phosphate starvation marker, namely the high affinity Pi transporter PHT1,4 gene. For the screening, the A. thaliana pht1;4-1 line (ecotype Wassilewskija) was chosen (Misson et al., 2004). It contains a T-DNA construct inserted into Pht1;4 gene creating a transcriptional fusion with a GUS reporter gene. For phenotypic analyses, A. thaliana Columbia and various lines derived from this ecotype were used. They are either transgenic lines expressing reporter gene as cycB1::GUS (Colón Carmona et al., 1999), MGD3::LUC, PHT1;4::LUC, At1g73010::LUC or various mutants affecting root response to low Pi such as: pdr2 (Ticconi et al., 2004), lpr1, lpr2 (Svistoonoff et al., 2007), lpi1, lpi2 and lpi3 (Sanchez-Calderon et al., 2006).
For the screening, the LATCA collection of 3600 biologically active compounds (Zhao et al., 2007) was used at a final concentration of 25 μM in 1% DMSO. Four to five Arabidopsis seeds of pht1;4-1 (Misson et al., 2004) reporter line were sown in 96-well plates containing 100 μL liquid MS/10 medium with 500 μM of Pi at pH 5.7. After 2 days at 4° C., plants were grown for five days in a culture chamber under a 16 h light/8 h dark regime (24/21° C., 150 μE m^−2s^−1). Medium was then replaced by MS/10 with only 5 μM Pi and the tested compounds were added to the 96-well plates. […] Five days later, plantlets were analysed by GUS staining to assay the activity of the reporter gene inserted in pht1;4 gene. […] Then, plates were analysed using a MZ16 stereomicroscope (Leica microsystems, Germany).
The GUS activity was detected as previously described by Jefferson et al. (1987), using a GUS staining solution containing 50 mM sodium phosphate buffer pH 7.0; 0.01% Triton X-100, 1 mM K3Fe(CN)6, 1 mM K4Fe(CN)6, 1 mg/ml 5-bromo-4-chloro-3-indolyl B-D-glucuronide (X-Gluc). […]

[5] = 14-days-old roots, −Pi+PTN1 40 μM vs −Pi
[6] = gene classes of Thibaud et al. (2010)

O=c1c(Sc2ccc(Cl)cc2)c(Sc2ccc(Cl)cc2)c1=O [PTN1]
absorption spectrum of solution containing PTN1 and Fe2+ [1]: identical to the PTN1 control without FeCl2 | anthocyanins accumulation in leaves of lpr1 (lpr1 mutant): substantially suppressed this accumulation | expression of PHT1;4, PHT1;8, MGD3, PLDz2, SQD2, SPX1 in lpr1 [2]: repressed the expression of these genes in lpr1 to a similar level as observed in the WT | expression of SQD2, MGD3, PLDz2, SQD1 and MGD2 [3]: repressed the expression | genes de-regulated in an opposite way compared with +Pi treatment ([4]; 40 μM, 14-days-old roots): around 4% | number of the 279 genes induced +Pi/−Pi also induced by PTN1 ([4]; 40 μM, 14-days-old roots): 115 genes | number of the 279 genes induced +Pi/−Pi repressed by PTN1 ([4]; 40 μM, 14-days-old roots): 11 genes | number of the 783 genes repressed +Pi/−Pi also repressed by PTN1 ([4]; 40 μM, 14-days-old roots): 316 genes | number of the 783 genes repressed +Pi/−Pi induced by PTN1 ([4]; 40 μM, 14-days-old roots): 30 genes | percentage of the 279 genes induced +Pi/−Pi also induced by PTN1 ([4]; 40 μM, 14-days-old roots): 41% and 41.2% | percentage of the 279 genes induced +Pi/−Pi repressed by PTN1 ([4]; 40 μM, 14-days-old roots): 3.9% | percentage of the 783 genes repressed +Pi/−Pi also repressed by PTN1 ([4]; 40 μM, 14-days-old roots): 40% and 40.3% | percentage of the 783 genes repressed +Pi/−Pi induced by PTN1 ([4]; 40 μM, 14-days-old roots): 3.8% | number of genes induced vs −Pi [4, 5]: 1001 genes | number of genes repressed vs −Pi [4, 5]: 1666 genes | number of genes modulated vs −Pi ([4]; 14-days-old roots, −Pi+PTN1 40 μM vs −Pi, more than two fold change, Bonferroni <0.05): 2667 genes | local genes repressed by Pi also repressed by PTN1 [4, 6]: 45% | systemic genes induced by Pi also regulated by PTN1 in the same direction [4, 6]: 55% | systemic genes repressed by Pi also regulated by PTN1 in the same direction [4, 6]: 65% | expression of PHT1;5 and PHT1;8 ([4]; transcriptomic analysis): down regulation | expression of lipid conversion genes including PLDζ2 and MGD3 ([4]; transcriptomic analysis): down regulated | toxicity as cause of reduced reporter gene expression (PHT1;4 expression): not explained by toxicity
